For 20 compounds, IC50 results are on record in patent publication US11427567B2, “Imidazolyl pyrimidinylamine compounds as CDK2 inhibitors” (Incyte Corporation, priority 2019, dated 2022).

The target in this assay is CDK2/Cyclin E1 (Homo sapiens (Human), UniProt P24941). As to the kind of experiment: CDK2/Cyclin E1 HTRF enzyme activity assay (Example A). It is filed as biochemical. The note with it: 1 mM ATP. The protocol: Assays were conducted in white 384-well polystyrene plates in a final reaction volume of 8 μL. […] HTRF signals were read after 1 hour at room temperature on a PHERAstar FS plate reader (BMG Labtech). Data was analyzed with IDBS XLFit and GraphPad Prism 5.0 software using a three or four parameter dose response curve to determine IC50 for each compound.

With `COc1nccc(-n2cc(-c3nc(N[C@H]4CCN(S(C)(=O)=O)C[C@H]4F)ncc3C(F)(F)F)nc2C)c1F` [Example 311, N-((3R,4S)-3-Fluoro-1-(methylsulfonyl)piperidin-4-yl)-4-(1-(3-fluoro-2-methoxypyridin-4-yl)-2-methyl-1H-imidazol-4-yl)-5-(trifluoromethyl)pyrimidin-2-amine], the IC50 (as a rule, the concentration that inhibits the measured activity by half) is ≤ 50 nM.
As to `COc1nccc(-n2cnc(-c3nc(NC4CCN(S(C)(=O)=O)CC4)ncc3C(F)(F)F)c2)c1C` [Example 312, 4-(1-(2-Methoxy-3-methylpyridin-4-yl)-1H-imidazol-4-yl)-N-(1-(methylsulfonyl)piperidin-4-yl)-5-(trifluoromethyl)pyrimidin-2-amine], the half-inhibitory concentration (IC50) was ≤ 50 nM.
Next, `Cc1nccc(-n2cc(-c3nc(N[C@H]4CCN(S(C)(=O)=O)C[C@H]4F)ncc3C(F)(F)F)nc2C)c1F` [Example 313, N-((3R,4S)-3-Fluoro-1-(methylsulfonyl)piperidin-4-yl)-4-(1-(3-fluoro-2-methylpyridin-4-yl)-2-methyl-1H-imidazol-4-yl)-5-(trifluoromethyl)pyrimidin-2-amine]: ≤ 50 nM; `COc1nccc(-n2cc(-c3nc(NC4CCN(S(C)(=O)=O)CC4)ncc3C(F)(F)F)nc2C)c1F` [Example 314, 4-(1-(3-Fluoro-2-methoxypyridin-4-yl)-2-methyl-1H-imidazol-4-yl)-N-(1-(methylsulfonyl)piperidin-4-yl)-5-(trifluoromethyl)pyrimidin-2-amine]: ≤ 50 nM; `CCN1CCN(c2nccc(-n3cnc(-c4nc(NC5CCN(S(C)(=O)=O)CC5)ncc4C(F)(F)F)c3)c2C#N)CC1` [Example 315, 2-(4-Ethylpiperazin-1-yl)-4-(4-(2-((1-(methylsulfonyl)piperidin-4-yl)amino)-5-(trifluoromethyl)pyrimidin-4-yl)-1H-imidazol-1-yl)nicotinonitrile]: ≤ 50 nM.
Take `CN1CCN(c2nccc(-n3cnc(-c4nc(NC5CCN(S(C)(=O)=O)CC5)ncc4C(F)(F)F)c3)c2C#N)CC1` [Example 316, 2-(4-Methylpiperazin-1-yl)-4-(4-(2-((1-(methylsulfonyl)piperidin-4-yl)amino)-5-(trifluoromethyl)pyrimidin-4-yl)-1H-imidazol-1-yl)nicotinonitrile]: the IC50 was ≤ 50 nM.
In the case of `CS(=O)(=O)N1CCC(Nc2ncc(C(F)(F)F)c(-c3cn(-c4ccnc(N5CCOCC5)c4C#N)cn3)n2)CC1` [Example 317, 4-(4-(2-((1-(Methylsulfonyl)piperidin-4-yl)amino)-5-(trifluoromethyl)pyrimidin-4-yl)-1H-imidazol-1-yl)-2-morpholinonicotinonitrile] it was ≤ 50 nM; in that of `CCN1CCN(c2nccc(-n3cnc(-c4nc(NC5CCN(S(C)(=O)=O)CC5)ncc4C(F)(F)F)c3)c2Cl)CC1` [Example 318, 4-(1-(3-Chloro-2-(4-ethylpiperazin-1-yl)pyridin-4-yl)-1H-imidazol-4-yl)-N-(1-(methylsulfonyl)piperidin-4-yl)-5-(trifluoromethyl)pyrimidin-2-amine], ≤ 50 nM; in that of `CN1CCN(c2nccc(-n3cnc(-c4nc(NC5CCN(S(C)(=O)=O)CC5)ncc4C(F)(F)F)c3)c2Cl)CC1` [Example 319, 4-(1-(3-Chloro-2-(4-methylpiperazin-1-yl)pyridin-4-yl)-1H-imidazol-4-yl)-N-(1-(methylsulfonyl)piperidin-4-yl)-5-(trifluoromethyl)pyrimidin-2-amine], ≤ 50 nM.
On to `CS(=O)(=O)N1CCC(Nc2ncc(C(F)(F)F)c(-c3cn(-c4ccnc(N5CCOCC5)c4Cl)cn3)n2)CC1` [Example 320], for which the IC50 is ≤ 50 nM.
For the compound `CN(C)c1nccc(-n2cnc(-c3nc(NC4CCN(S(C)(=O)=O)CC4)ncc3C(F)(F)F)c2)c1Cl` [Example 321, 4-(1-(3-Chloro-2-(dimethylamino)pyridin-4-yl)-1H-imidazol-4-yl)-N-(1-(methylsulfonyl)piperidin-4-yl)-5-(trifluoromethyl)pyrimidin-2-amine], the IC50 is ≤ 50 nM.
In the case of `CNc1nccc(-n2cnc(-c3nc(NC4CCN(S(C)(=O)=O)CC4)ncc3C(F)(F)F)c2)c1Cl` [Example 322, 4-(1-(3-Chloro-2-(methylamino)pyridin-4-yl)-1H-imidazol-4-yl)-N-(1-(methylsulfonyl)piperidin-4-yl)-5-(trifluoromethyl)pyrimidin-2-amine] it was ≤ 50 nM; in that of `CC(C)(O)Cn1cnc(-c2nc(N[C@H]3CCN(S(=O)(=O)C4CC4)C[C@H]3F)ncc2C(F)(F)F)c1` [Example 323, 1-(4-(2-(((3R,4S)-1-(Cyclopropylsulfonyl)-3-fluoropiperidin-4-yl)amino)-5-(trifluoromethyl)pyrimidin-4-yl)-1H-imidazol-1-yl)-2-methylpropan-2-ol], ≤ 50 nM.
`CCS(=O)(=O)N1CCC(Nc2ncc(C(F)(F)F)c(-c3cn(CC(C)(C)O)cn3)n2)CC1` [Example 324, 1-(4-(2-((1-(Ethylsulfonyl)piperidin-4-yl)amino)-5-(trifluoromethyl)pyrimidin-4-yl)-1H-imidazol-1-yl)-2-methylpropan-2-ol]: the IC50 was ≤ 50 nM.
As for `CC(C)(O)Cn1cnc(-c2nc(N[C@H]3CCN(S(C)(=O)=O)C[C@H]3F)ncc2C(F)(F)F)c1` [Example 325, 1-(4-(2-(((3R,4S)-3-Fluoro-1-(methylsulfonyl)piperidin-4-yl)amino)-5-(trifluoromethyl)pyrimidin-4-yl)-1H-imidazol-1-yl)-2-methylpropan-2-ol], the IC50 is ≤ 50 nM.
In the case of `CC(C)(O)Cn1cnc(-c2nc(N[C@@H]3CCN(S(C)(=O)=O)C[C@H]3F)ncc2C(F)(F)F)c1` [Example 326, 1-(4-(2-(((3R,4R)-3-Fluoro-1-(methylsulfonyl)piperidin-4-yl)amino)-5-(trifluoromethyl)pyrimidin-4-yl)-1H-imidazol-1-yl)-2-methylpropan-2-ol] it was ≤ 50 nM; in that of `C[C@@H]1CN(S(C)(=O)=O)CC[C@@H]1Nc1ncc(C(F)(F)F)c(-c2cn(CC(C)(C)O)cn2)n1` [Example 327, 2-Methyl-1-(4-(2-(((3R,4S)-3-methyl-1-(methylsulfonyl)piperidin-4-yl)amino)-5-(trifluoromethyl)pyrimidin-4-yl)-1H-imidazol-1-yl)propan-2-ol], ≤ 50 nM; in that of `CCS(=O)(=O)N1CCC(Nc2ncc(C(F)(F)F)c(-c3cn(CC(F)F)cn3)n2)CC1` [Example 328, 4-(1-(2,2-Difluoroethyl)-1H-imidazol-4-yl)-N-(1-(ethylsulfonyl)piperidin-4-yl)-5-(trifluoromethyl)pyrimidin-2-amine], ≤ 50 nM.
In the case of `O=S(=O)(C1CC1)N1CC[C@H](Nc2ncc(C(F)(F)F)c(-c3cn(CC(F)F)cn3)n2)[C@H](F)C1` [Example 329, N-((3R,4S)-1-(Cyclopropylsulfonyl)-3-fluoropiperidin-4-yl)-4-(1-(2,2-difluoroethyl)-1H-imidazol-4-yl)-5-(trifluoromethyl)pyrimidin-2-amine] it was ≤ 50 nM.
Consider `CS(=O)(=O)N1CC[C@H](Nc2ncc(C(F)(F)F)c(-c3cn(CC(F)F)cn3)n2)[C@H](F)C1` [Example 330, 4-(1-(2,2-Difluoroethyl)-1H-imidazol-4-yl)-N-((3R,4S)-3-fluoro-1-(methylsulfonyl)piperidin-4-yl)-5-(trifluoromethyl)pyrimidin-2-amine], for which the IC50 is ≤ 50 nM.
